Biological target: T1, interpain A (InpA) (Prevotella intermedia, UniProt A9J7N5)
T1 construct: gene pin0048; full precursor 868 residues with 44-residue signal peptide; mature form 28 kDa (Val112-Pro359)
Test: active-site titration; residual activity by AMC release from Boc-Val-Leu-Lys-AMC
Format: biochemical
Conditions: titrated to total inactivation; pH 7.5, 5 mM EDTA, 2 mM DTT; 37 min preincubation at room temperature; covalent active-site cysteine inhibitor (mode known, not given)

T1 sequence (A9J7N5 entry or part of it): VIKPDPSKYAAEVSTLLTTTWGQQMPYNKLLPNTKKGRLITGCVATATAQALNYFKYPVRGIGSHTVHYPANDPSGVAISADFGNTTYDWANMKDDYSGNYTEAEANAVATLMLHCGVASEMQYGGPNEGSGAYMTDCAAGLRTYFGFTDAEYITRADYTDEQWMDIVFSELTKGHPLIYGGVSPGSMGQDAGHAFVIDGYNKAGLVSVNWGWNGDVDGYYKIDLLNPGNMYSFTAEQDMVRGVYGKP

CC(C)C[C@H](NC(=O)[C@H]1O[C@@H]1C(=O)O)C(=O)NCCCCNC(=N)N [E64]
active-site titration; residual activity by AMC release from Boc-Val-Leu-Lys-AMC: determined by active site titration using inhibitor E64 (Sigma)

— article PMC2642729, “Interpain A, a Cysteine Proteinase from Prevotella intermedia, Inhibits Complement by Degrading Complement Factor C3” (PLoS Pathogens, 2009)
